Data from patent US10517867B2, “Posaconazole derivative, pharmaceutical composition and use thereof” (priority 2016, dated 2019).
Like-named read-outs stand apart in the source and are kept apart here.

Columns and labels:
[1] = test system: Candida albicans ATCC10231; test: Systemic fungal infection in mice, intragastric administration; type: in vivo, ICR mice; settings: Candida albicans, ATCC10231, po
[2] = In vitro metabolic stability in rat plasma; type: in vitro ADME; settings: rat, plasma, 37° C., 10 μM compound, read-out: Rat plasma T1/2
Procedure, shortened: (§1)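 Human or rat plasma, preincubated 5 min at 37 °C, or intestinal S9 at 37 °C, spiked from 1 mM stock; triplicates sampled at 1, 2, 5, 15 and 30 min into cold internal standard. HPLC quantitation; half-life by non-compartmental analysis.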

[3] = test system: Candida albicans ATCC10231; test: Candida albicans vaginitis in mice, intragastric administration; type: in vivo, KM mice; settings: logarithm of the CFU values, mean ± SD of 20 mice, 20 mg/kg intragastric once a day
[4] = In vitro metabolic stability in rat intestine S9; type: in vitro ADME; settings: rat, intestinal S9, pH 7.4; 37° C., 10 μM compound, 1 mg/mL S9, NADPH regeneration system; read-out: Rat intestine S9 T1/2
Procedure, shortened: as §1

[5] = test system: Aspergillus fumigatus AF293; test: Lung Aspergillus fumigatus infection in immunosuppressed mice, intravenous administration; settings: for responders at 20 mg/kg: Aspergillus fumigatus, AF293, in Mus musculus, iv
[6] = Determination of solubility in deionized water (HPLC, external standard); settings: 25 °C, water, thermodynamic from solid
[7] = In vitro metabolic stability in human intestine S9; type: in vitro ADME; settings: human, intestinal S9; 37° C., 10 μM compound, 1 mg/mL S9, NADPH regeneration system; read-out: Human intestine S9 T1/2
Procedure, shortened: as §1

[8] = test system: Candida albicans ATCC10231; test: Systemic fungal infection in mice, intravenous administration; type: in vivo, ICR mice
[9] = test system: Aspergillus Fumigutus (AF) strains; test: Aspergillus fumigatus keratitis in rats, intravenous administration; settings: 10 mg/kg tail vein once daily for 5 days; mean ± SD of 10 rats
[10] = In vitro metabolic stability in human plasma; type: in vitro ADME; settings: human, plasma, 37° C., 10 μM compound, read-out: Human plasma T1/2
Procedure, shortened: as §1

[11] = Solid stability test (stability chamber, HPLC total impurity); type: physicochemical

For `CC[C@@H]([C@H](C)O)n1ncn(-c2ccc(N3CCN(c4ccc(OC[C@@H]5CO[C@@](Cn6c[n+](C(C)OC(=O)N(C)c7ncccc7COC(=O)CN)cn6)(c6ccc(F)cc6F)C5)cc4)CC3)cc2)c1=O` (stereo partly drawn) [ST0002], which responders at 20 mg/kg ([1]; 24 h, read-out: survival rate of mice, day 1, 20 mg/kg intragastric once daily for 5 days, day 1) is on record?
Its responders at 20 mg/kg is 100%.

What about the responders at 20 mg/kg ([1]; 48 h, read-out: survival rate of mice, day 2, 20 mg/kg intragastric once daily for 5 days, day 2) of the same compound?
Its responders at 20 mg/kg is 100%.

What about the responders at 20 mg/kg ([1]; 72 h, read-out: survival rate of mice, day 3, 20 mg/kg intragastric once daily for 5 days, day 3) of the same compound?
Its responders at 20 mg/kg is 90%.

What about the responders at 20 mg/kg ([1]; 96 h, read-out: survival rate of mice, day 4, 20 mg/kg intragastric once daily for 5 days, day 4) of the same compound?
The responders at 20 mg/kg was 80%.

And the responders at 20 mg/kg ([1]; 120 h, read-out: survival rate of mice, day 5, 20 mg/kg intragastric once daily for 5 days, day 5)?
The responders at 20 mg/kg was 80%.

What about the responders at 20 mg/kg ([1]; 144 h, read-out: survival rate of mice, day 6, 20 mg/kg intragastric once daily for 5 days, day 6) of the same compound?
Its responders at 20 mg/kg is 70%.

And the responders at 20 mg/kg ([1]; 168 h, read-out: survival rate of mice, day 7, 20 mg/kg intragastric once daily for 5 days, day 7)?
Its responders at 20 mg/kg is 70%.

And the half-life at 10 µM [2]?
Its half-life at 10 µM is 1.12 ± 0.35 min.

What about the “vaginal fungal load of mice, day 3” value ([3]; day 3) of the same compound?
Its value is 4.18 ± 0.22.

What about the “vaginal fungal load of mice, day 5” value ([3]; day 5) of the same compound?
The value was 4.35 ± 0.41.

And the “vaginal fungal load of mice, day 7” value ([3]; day 7)?
Its value is 3.97 ± 0.47.

What about the “vaginal fungal load of mice, day 11” value ([3]; day 11) of the same compound?
The value was 3.05 ± 0.27.

And the half-life at 10 µM [4]?
Its half-life at 10 µM is 18.5 ± 4.56 min.

What about the responders at 20 mg/kg ([5]; 24 h, read-out: survival rate of mice, day 1, 20 mg/kg tail vein once daily for 5 days, day 1) of the same compound?
Its responders at 20 mg/kg is 100%.

And the responders at 20 mg/kg ([5]; 48 h, read-out: survival rate of mice, day 2, 20 mg/kg tail vein once daily for 5 days, day 2)?
The responders at 20 mg/kg was 100%.

What about the responders at 20 mg/kg ([5]; 72 h, read-out: survival rate of mice, day 3, 20 mg/kg tail vein once daily for 5 days, day 3) of the same compound?
Its responders at 20 mg/kg is 100%.

What about the responders at 20 mg/kg ([5]; 96 h, read-out: survival rate of mice, day 4, 20 mg/kg tail vein once daily for 5 days, day 4) of the same compound?
Its responders at 20 mg/kg is 100%.

And the responders at 20 mg/kg ([5]; 120 h, read-out: survival rate of mice, day 5, 20 mg/kg tail vein once daily for 5 days, day 5)?
Its responders at 20 mg/kg is 90%.

And the responders at 20 mg/kg ([5]; 144 h, read-out: survival rate of mice, day 6, 20 mg/kg tail vein once daily for 5 days, day 6)?
Its responders at 20 mg/kg is 90%.

And the responders at 20 mg/kg ([5]; 168 h, read-out: survival rate of mice, day 7, 20 mg/kg tail vein once daily for 5 days, day 7)?
Its responders at 20 mg/kg is 80%.

And the lung fungal load ([5]; mouse lung tissue, seven days later, 20 mg/kg tail vein once daily for 5 days, mean ± SD)?
Its lung fungal load is 1.89 ± 0.22 10^4 CFU/ml.

What about the solubility at 30 min [6] of the same compound?
Its solubility at 30 min is 30.8 mg/mL.

And the half-life at 10 µM [7]?
The half-life at 10 µM was 14.9 ± 3.56 min.

What about the responders at 20 mg/kg ([8]; 24 h, read-out: survival rate of mice, day 1) of the same compound?
The responders at 20 mg/kg was 100%.

And the responders at 20 mg/kg ([8]; 48 h, read-out: survival rate of mice, day 2)?
Its responders at 20 mg/kg is 100%.

What about the responders at 20 mg/kg ([8]; 72 h, read-out: survival rate of mice, day 3) of the same compound?
Its responders at 20 mg/kg is 100%.

What about the responders at 20 mg/kg ([8]; 96 h, read-out: survival rate of mice, day 4) of the same compound?
The responders at 20 mg/kg was 100%.

What about the responders at 20 mg/kg ([8]; 120 h, read-out: survival rate of mice, day 5) of the same compound?
Its responders at 20 mg/kg is 100%.

What about the responders at 20 mg/kg ([8]; 144 h, read-out: survival rate of mice, day 6) of the same compound?
The responders at 20 mg/kg was 90%.

What about the responders at 20 mg/kg ([8]; 168 h, read-out: survival rate of mice, day 7) of the same compound?
The responders at 20 mg/kg was 90%.

What about the “Amount of active fungi in cornea at day 7” value [9] of the same compound?
The value was 2.37 ± 0.49 10^3 CFU/ml.

And the half-life at 10 µM [10]?
The half-life at 10 µM was 0.78 ± 0.15 min.

And the “Total impurity increment in 30 days” value [11]?
The value was 0.63%.
